Results taken from patent publication US20120015925A1, “NOVEL BENZOTHIAZEPINE AND BENZOTHIEPINE COMPOUNDS” (ASAHI KASEI PHARMA CORPORATION, priority 2004, published 2012).

Experiments:
rats dosed cholic acid = assay: Lowering effect on bile acid concentrations in portal vein blood in rats dosed cholic acid; type: in vivo, rat
Experimental: In the present Test Example, a lowering effect on bile acid concentrations in portal vein blood in rats dosed cholic acid was evaluated according to the method described in Jpn. Pharmacol. Ther., Vol. 24 Supplement, 1996, 103(S-577)-110(S-584).
That is, SD (IGS) strain male rats at 7 to 9 weeks of age were fasted one day before the administration date. […] The blood was collected from the portal vein 2 hours after the forced oral administration, and a total bile acid value in serum was measured to examine the effect of the test compound (n=6). As a control, another group (n=6) merely received cholic acid (200 mg/kg), to which the same procedure was applied. The cholic acid value was measured using the commercially available kit (brand name: Total Bile Acid-Test Wako, supplied form Wako Pure Chemical Industries). Defining the value in the control group to which no test compound had been administered as being 100%, a reduction rate (%) of the bile acid value when a certain amount of the test compound had been administered was calculated.

Caco-2 cell = assay: Gastrointestinal toxicity: cytotoxicity against Caco-2 cell (LDH activity); type: cell-based, human; conditions: for CELL TOXICITY AGAINST Caco2 3 μM / CELL TOXICITY AGAINST Caco2 10 μM / CELL TOXICITY AGAINST Caco2 30 μM: 2 hours, LDH activity in medium relative to cell lysis agent = 100%
Experimental: That is, 10,000 cells/well of Caco-2 cells (purchased from ATCC) were seeded in a 96-well plate [MEM-E medium, 10% FBS (Fetal Bovine Serum), 1% NEAA (Non Essential Amino Acid) solution, supplied from Gibco]. After culturing for 48 hours, the test compound diluted with the medium was added to each well. After 2 hours, 50 μL of the medium was collected, and an LDH activity in the medium was measured using an LDH activity measurement kit (CytoTox96 Non-Radioactive Cytotoxicity Assay, supplied from Promega). Defining the LDH activity of the Caco-2 cells treated with a cell lysis agent as being 100%, the relative activity was calculated as a index of the cytotoxicity.

human IBAT = target: T1, human IBAT (Homo sapiens, UniProt Q12908); assay: In vitro assay using Cos 7 cells, transiently expressed human IBAT; type: cell-based; conditions: [3H]-taurocholate 8 μM uptake, 37° C., 60 minutes
T1 sequence (Q12908 1-348): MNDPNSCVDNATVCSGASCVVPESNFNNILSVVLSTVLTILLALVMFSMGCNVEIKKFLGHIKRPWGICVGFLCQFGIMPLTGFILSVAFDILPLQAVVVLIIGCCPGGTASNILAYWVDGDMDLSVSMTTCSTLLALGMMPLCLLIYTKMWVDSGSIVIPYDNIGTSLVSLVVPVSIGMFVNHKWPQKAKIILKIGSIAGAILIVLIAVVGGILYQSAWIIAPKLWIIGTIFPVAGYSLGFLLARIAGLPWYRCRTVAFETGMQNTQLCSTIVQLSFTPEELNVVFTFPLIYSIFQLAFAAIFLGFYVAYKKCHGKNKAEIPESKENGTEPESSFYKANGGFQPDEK
Experimental: In the present Test Example, an in vitro assay of compounds using Cos 7 cells as to inhibitory activity on transiently expressed human IBAT or rat IBAT transporter was performed according to the method described in Am. J. Physiol., 274, G157-169.
That is, […] cells/well of Cos 7 cells were seeded in a 24-well plate, and after one day, the cells were transfected with 0.3 μg/well of cDNA of human IBAT or rat IBAT using FuGENE6 (supplied from Roche). After culturing for one day after the transfection, the cells were washed once with the assay buffer, i.e., Hanks buffer containing 25 mM glucose and 10 mM HEPES (pH 7.4). The assay buffer was then replaced with the assay buffer containing the test compound. [^3H]-Taurocholate at a final concentration of 8 μM was added thereto and incubated at 37° C. for 60 minutes so that [^3H]-taurocholate was taken into Cos 7 cells by the action of human IBAT or rat IBAT. The cells were washed twice with the assay buffer containing 1 mM taurocholate, and subsequently lysed with 0.2 M NaOH to stop the reaction. The cell lysate was added to 4 mL of liquid scintillation cocktail, which was then thoroughly vortexed. Then the radioactivity was measured using the liquid scintillation counter.

[1] = 0.1 mg/kg oral with cholic acid 200 mg/kg, portal vein serum total bile acid 2 hours after, control = 100%, surfactant HCO-60 (##)

Compound	CELL TOXICITY AGAINST Caco2 3 μM (Caco-2 cell)	CELL TOXICITY AGAINST Caco2 10 μM (Caco-2 cell)	CELL TOXICITY AGAINST Caco2 30 μM (Caco-2 cell)	IC50 (human IBAT)	further results
CCCCC1(CCCC)CS(=O)(=O)c2ccc(N(C)C)cc2C(c2cccc(NC(=S)Nc3ccc(C[N+](C)(C)CCOCCO)cc3)c2)N1.[Br-] (racemic) [EXAMPLE 3475]					BILE ACID REDUCTION RATE (%) IN RAT MODEL WITH CHOLIC ACID LOADING (rats dosed cholic acid; [1]): 19%
CCCCCC1(CCCCC)CS(=O)(=O)c2ccc(N(C)C)cc2C(c2cccc(NC(=S)Nc3ccc(C[N+]45CCC(CC4)CC5)cc3)c2)N1.[Br-] (racemic) [EXAMPLE 5735]	<1%	<1%	<1%		
CCCCCC1(CCCCC)CS(=O)(=O)c2ccc(N(C)C)cc2C(c2cccc(NC(=S)Nc3ccc(CC[N+](C)(C)Cc4ccccc4)cc3)c2)N1.[Br-] (racemic) [EXAMPLE 5856]	<1%	<1%	<1%		
CCCCCC1(CCCCC)CS(=O)(=O)c2ccc(N(C)C)cc2C(c2cccc(NC(=S)Nc3ccc(CC[N+]45CCC(CC4)CC5)cc3)c2)N1.[Br-] (racemic) [EXAMPLE 5857]	<1%	<1%	<1%		
CCCCC1(CCCC)CS(=O)(=O)c2ccc(N(C)C)cc2C(c2ccc(OCc3ccc(C[N+]45CCN(CC4)CC5)cc3)cc2)N1.[Cl-] (stereo not drawn) [Comparative Example, 1-{4-[4-(3,3-dibutyl-7-dimethylamino-1,1-dioxo-2,3,4,5-tetrahydro-1,4-benzothiazepine-5-yl)phenoxymethyl]benzyl}-4-aza-1-azoniabicyclo[2.2.2]octane chloride, reference compound]					cytotoxicity to the Caco-2 cell (Caco-2 cell; LDH activity in medium after 2 hours): exhibited the cytotoxicity to the small intestine epithelial cell line at low concentrations
CCCCC1(CCCC)CS(=O)(=O)c2ccc(N(C)C)cc2C(c2cccc(NC(=S)NCCCC[N+](C)(C)Cc3ccccc3)c2)N1.[Br-] (stereo not drawn) [EXAMPLE 801]					BILE ACID REDUCTION RATE (%) IN RAT MODEL WITH CHOLIC ACID LOADING (rats dosed cholic acid; 0.1 mg/kg oral, surfactant HCO-60 0.1%, cholic acid 200 mg/kg, portal vein blood 2 hours after administration): 33%
CCCCC1(CCCC)CS(=O)(=O)c2ccc(N(C)C)cc2C(c2cccc(NC(=S)Nc3ccc(C[N+]45CCN(CC4)CC5)cc3)c2)N1.[Br-] (stereo not drawn) [EXAMPLE 3705]	<1%	<1%	<1%	54 nM	
CCCCC1(CCCC)CS(=O)(=O)c2ccc(N(C)C)cc2C(c2cccc(NC(=S)Nc3ccc(C[n+]4ccc(C)cc4)cc3)c2)N1.[Br-] (stereo not drawn) [EXAMPLE 3709]	<1%	<1%	<1%	49 nM	
CCCCc1ccc[n+](Cc2ccc(NC(=S)Nc3cccc(C4NC(CCCC)(CCCC)CS(=O)(=O)c5ccc(N(C)C)cc54)c3)cc2)c1.[Br-] (stereo not drawn) [EXAMPLE 3723]	<1%	<1%	<1%	25 nM	
CCCCC1(CCCC)CS(=O)(=O)c2ccc(N(C)C)cc2C(c2cccc(NC(=S)Nc3ccccc3C[N+]34CCC(CC3)CC4)c2)N1.[Br-] (stereo not drawn) [EXAMPLE 4905]					BILE ACID REDUCTION RATE (%) IN RAT MODEL WITH CHOLIC ACID LOADING (rats dosed cholic acid; [1]): 28%
CCCCCC1(CCCCC)CS(=O)(=O)c2ccc(N(C)C)cc2C(c2cccc(NC(=S)Nc3ccc(C[N+](C)(C)Cc4ccccc4)cc3)c2)N1.[Br-] (stereo not drawn) [EXAMPLE 5480]	<1%	<1%	<1%		
CCCCC1(CCCC)CS(=O)(=O)c2ccc(N(C)C)cc2C(c2cccc(NC(=S)Nc3ccc(C[N+]45CCC(c6ccccc6)(CC4)CC5)cc3C)c2)N1.[Br-] (stereo not drawn) [EXAMPLE P340]		<1%	<1%	28 nM	
CCCCC1(CCCC)CS(=O)(=O)c2ccc(N(C)C)cc2C(c2cccc(NC(=S)Nc3ccc(C[N+]45CCC(c6ccccc6)(CC4)CC5)cc3Cl)c2)N1.[Br-] (stereo not drawn) [EXAMPLE P344]		<1%	<1%	19 nM	
CCCCC1(CCCC)CS(=O)(=O)c2ccc(N(C)C)cc2C(c2cccc(NC(=S)Nc3ccc(C[N+]45CCC(c6ccccc6)(CC4)CC5)c(Cl)c3)c2)N1.[Br-] (stereo not drawn) [EXAMPLE P345]		<1%	<1%	23 nM	
CCCCC1(CCCC)CS(=O)(=O)c2ccc(N(C)C)cc2C(c2cccc(NC(=S)Nc3ccc(C[N+]45CCC(c6ccccc6)(CC4)CC5)c(Br)c3)c2)N1.[Br-] (stereo not drawn) [EXAMPLE P347]		<1%	<1%	24 nM	
CCCCC1(CCCC)CS(=O)(=O)c2ccc(N(C)C)cc2C(c2cccc(NC(=S)Nc3ccc(C[N+]45CCC(c6ccccc6)(CC4)CC5)c(C(F)(F)F)c3)c2)N1.[Br-] (stereo not drawn) [EXAMPLE P348]		<1%	<1%	22 nM	
CCCCC1(CCCC)CS(=O)(=O)c2ccc(N(C)C)cc2C(c2cccc(NC(=S)Nc3ccc(C[n+]4ccc(-c5ccccc5)cc4)c([N+](=O)[O-])c3)c2)N1 (stereo not drawn) [EXAMPLE P385]				56 nM	
CCCCC1(CCCC)CS(=O)(=O)c2ccc(N(C)C)cc2C(c2cccc(NC(=S)Nc3c(C)cc(C[n+]4ccc(-c5ccccc5)cc4)cc3C)c2)N1 (stereo not drawn) [EXAMPLE P386]				60 nM	
CCCCC1(CCCC)CS(=O)(=O)c2ccc(N(C)C)cc2C(c2cccc(NC(=S)NCCC[N+]34CCC(CC3)CC4)c2)N1.[Br-] (stereo not drawn) [Example 9, 1-(3-{3-[3-(3,3-dibutyl-7-dimethylamino-1,1-dioxo-2,3,4,5-tetrahydro-1,4-benzothiazepine-5-yl)phenyl]thioureido}propyl)-1-azoniabicyclo[2.2.2]octane bromide]					BILE ACID REDUCTION RATE (%) IN RAT MODEL WITH CHOLIC ACID LOADING (rats dosed cholic acid; 0.1 mg/kg oral, surfactant Tween 20 0.05%, cholic acid 200 mg/kg, portal vein blood 2 hours after administration): 13%
CCCCC1(CCCC)CS(=O)(=O)c2ccc(N(C)C)cc2C(c2ccc(NC(=S)Nc3ccc(C[N+](C)(C)Cc4ccccc4)cc3)cc2)N1.[Br-] (stereo not drawn) [Example 5405, Benzyl-(4-{3-[4-(3,3-dibutyl-7-dimethylamino-1,1-dioxo-2,3,4,5-tetrahydro-1,4-benzothiazepine-5-yl)phenyl]thioureido}benzyl)dimethylammonium bromide]					BILE ACID REDUCTION RATE (%) IN RAT MODEL WITH CHOLIC ACID LOADING (rats dosed cholic acid; po, 0.1 mg/kg, 2 h): 16%
CCCCC1(CCCC)CS(=O)(=O)c2ccc(N(C)C)cc2C(c2cccc(NC(=S)Nc3ccc(C[N+]45CCC(c6ccccc6)(CC4)CC5)cc3F)c2)N1 (stereo not drawn) [Example P316, 1-(4-{3-[3-(3,3-dibutyl-7-dimethylamino-1,1-dioxo-2,3,4,5-tetrahydro-1,4-benzothiazepine-5-yl)phenyl]thioureido}-3-fluorobenzyl)-4-phenyl-1-azoniabicyclo[2.2.2]octane bromide]				28 nM	
